Experimental data as given in patent US8637511B2, “Aminopyrimidines useful as kinase inhibitors” (Vertex Pharmaceuticals Incorporated, priority 2005, dated 2014).
“And” between values parts separate entries of the source, which are not always exact repeats. Identical values can stand only once. Like-named read-outs stand apart in the source and are kept apart here.

Experiments:
JAK3 = target: T1, JAK3 (Homo sapiens, UniProt P52333); assay: biochemical
T1 sequence (P52333 1-1124): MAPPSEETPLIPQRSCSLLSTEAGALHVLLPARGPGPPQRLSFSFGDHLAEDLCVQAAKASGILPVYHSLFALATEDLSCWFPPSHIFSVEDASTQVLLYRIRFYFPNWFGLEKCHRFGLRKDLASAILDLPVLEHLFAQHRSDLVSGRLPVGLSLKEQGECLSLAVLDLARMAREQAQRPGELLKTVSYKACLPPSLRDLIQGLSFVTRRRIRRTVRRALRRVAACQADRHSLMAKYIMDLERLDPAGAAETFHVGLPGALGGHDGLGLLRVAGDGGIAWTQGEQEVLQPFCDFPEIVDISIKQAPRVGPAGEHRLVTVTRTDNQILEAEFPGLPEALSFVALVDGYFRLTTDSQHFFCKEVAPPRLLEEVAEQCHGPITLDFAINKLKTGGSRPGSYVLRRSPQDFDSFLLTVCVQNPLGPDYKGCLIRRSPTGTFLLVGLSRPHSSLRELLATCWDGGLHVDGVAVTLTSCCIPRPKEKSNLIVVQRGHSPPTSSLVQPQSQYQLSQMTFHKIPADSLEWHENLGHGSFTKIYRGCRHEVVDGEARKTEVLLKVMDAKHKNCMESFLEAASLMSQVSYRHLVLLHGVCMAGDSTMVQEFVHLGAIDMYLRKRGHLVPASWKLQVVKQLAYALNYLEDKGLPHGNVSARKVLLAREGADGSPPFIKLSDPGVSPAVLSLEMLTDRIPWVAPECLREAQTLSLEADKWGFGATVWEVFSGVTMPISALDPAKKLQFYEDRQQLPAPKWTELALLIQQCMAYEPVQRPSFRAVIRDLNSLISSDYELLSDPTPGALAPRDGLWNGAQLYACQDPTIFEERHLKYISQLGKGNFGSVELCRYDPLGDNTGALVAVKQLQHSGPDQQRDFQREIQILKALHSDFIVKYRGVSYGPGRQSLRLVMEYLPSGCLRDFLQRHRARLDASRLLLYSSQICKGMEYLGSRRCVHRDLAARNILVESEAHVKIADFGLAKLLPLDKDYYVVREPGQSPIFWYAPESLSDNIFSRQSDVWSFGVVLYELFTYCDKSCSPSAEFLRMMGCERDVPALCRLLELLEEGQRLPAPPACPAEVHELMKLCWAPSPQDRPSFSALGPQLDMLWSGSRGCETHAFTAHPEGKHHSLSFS

Colo205 cells = assay: Analysis of cell proliferation and viability; format: cell-based; conditions: Homo sapiens, read-out: IC50 value
Protocol: Colo205 cells were seeded in 96 well plates and serially diluted compound was added to the wells in duplicate. Control groups included untreated cells, the compound diluent (0.1% DMSO alone) and culture medium without cells.
To measure proliferation, 3 h prior to the end of the experiment 0.5 μCi of 3H thymidine was added to each well. Cells were then harvested and the incorporated radioactivity counted on a Wallac microplate beta-counter. Cell viability was assessed using Promega CellTiter 96AQ to measure MTS conversion. Dose response curves were calculated using either Prism 3.0 (GraphPad) or SoftMax Pro 4.3.1 LS (Molecular Devices) software.

Aurora-2 (Aurora A) = target: T2, Aurora-2 (Aurora A) (Homo sapiens, UniProt O14965); assay: Aurora-2 (Aurora A) inhibition assay, coupled enzyme; format: biochemical
T2 sequence (O14965 1-403): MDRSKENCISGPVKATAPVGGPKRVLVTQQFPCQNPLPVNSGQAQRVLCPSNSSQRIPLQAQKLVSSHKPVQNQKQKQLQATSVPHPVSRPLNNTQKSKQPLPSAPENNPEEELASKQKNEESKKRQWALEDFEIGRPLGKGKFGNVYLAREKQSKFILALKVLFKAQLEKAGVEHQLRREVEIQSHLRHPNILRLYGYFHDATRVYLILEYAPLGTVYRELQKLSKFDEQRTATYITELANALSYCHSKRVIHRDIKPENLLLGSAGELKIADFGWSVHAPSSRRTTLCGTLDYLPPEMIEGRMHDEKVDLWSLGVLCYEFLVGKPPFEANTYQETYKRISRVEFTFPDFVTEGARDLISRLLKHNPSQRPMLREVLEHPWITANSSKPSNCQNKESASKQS
Protocol: Assays were carried out in a mixture of 100 mM Hepes (pH7.5), 10 mM MgCl2, 1 mM DTT, 25 mM NaCl, 2.5 mM phosphoenolpyruvate, 300 μM NADH, 30 μg/ml pyruvate kinase and 10 μg/ml lactate dehydrogenase. […] Assays were carried out at 30° C. and in the presence of 40 nM Aurora-2.
The plate was preincubated for 10 minutes at 30° C. and the reaction initiated by addition of 10 μl of Aurora-2. Initial reaction rates were determined with a Molecular Devices SpectraMax Plus plate reader over a 10 minute time course. IC50 and Ki data were calculated from non-linear regression analysis using the Prism software package (GraphPad Prism version 3.0cx for Macintosh, GraphPad Software, San Diego Calif., USA).

Aurora-1 (Aurora B) = Aurora-1 (Aurora B) (Homo sapiens, UniProt Q96GD4); assay: Aurora-1 (Aurora B) inhibition assay (radiometric); format: biochemical; conditions: read-out: Aurora B kinase Ki value
Sequence of Aurora-1 (Aurora B) (Q96GD4 whole entry): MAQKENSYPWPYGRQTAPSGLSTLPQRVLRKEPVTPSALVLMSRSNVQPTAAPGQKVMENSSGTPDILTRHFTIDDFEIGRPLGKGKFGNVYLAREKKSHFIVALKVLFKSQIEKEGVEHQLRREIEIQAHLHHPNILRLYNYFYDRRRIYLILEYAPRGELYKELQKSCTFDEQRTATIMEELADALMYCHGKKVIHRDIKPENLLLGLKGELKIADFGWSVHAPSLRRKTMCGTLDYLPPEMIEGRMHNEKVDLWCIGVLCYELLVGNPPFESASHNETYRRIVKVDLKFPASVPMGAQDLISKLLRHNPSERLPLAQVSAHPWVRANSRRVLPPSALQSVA
Protocol: An assay buffer solution was prepared which consisted of 25 mM HEPES (pH 7.5), 10 mM MgCl2, 0.1% BSA and 10% glycerol. […] To 22 μL of the Aurora-B solution, in a 96-well plate, was added 2 μl of a compound stock solution in DMSO and the mixture allowed to equilibrate for 10 minutes at 25° C. The enzyme reaction was initiated by the addition of 16 μl stock [γ-^33P]-ATP solution (˜20 nCi/μL) prepared in assay buffer, to a final assay concentration of 800 μM. The reaction was stopped after 3 hours by the addition of 16 μL 500 mM phosphoric acid and the levels of ^33P incorporation into the peptide substrate were determined by the following method.
A phosphocellulose 96-well plate (Millipore, Cat no. MAPHNOB50) was pre-treated with 100 μL of a 100 mM phosphoric acid prior to the addition of the enzyme reaction mixture (40 μL). The solution was left to soak on to the phosphocellulose membrane for 30 minutes and the plate subsequently washed four times with 200 μL of a 100 mM phosphoric acid. […] Levels of non-enzyme catalyzed background radioactivity were determined by adding 16 μL of the 500 mM phosphoric acid to control wells, containing all assay components (which acts to denature the enzyme), prior to the addition of the [γ-^33P]-ATP solution. Levels of enzyme catalyzed. ^33P incorporation were calculated by subtracting mean background counts from those measured at each inhibitor concentration. […] Ki values were calculated from initial rate data by non-linear regression using the Prism software package (Prism 3.0, Graphpad Software, San Diego, Calif.).

[1] = COLO 205, Colo205 cells, incubated for 96 hours
[2] = read-out: Aurora A kinase Ki value
[3] = COLO 205, Colo205 cells, incubated for 72 hours

Ki (Aurora-2 (Aurora A); [2]) [nM] | SMILES | Ki (JAK3) [nM] | IC50 (Colo205 cells; [1]) [nM] | Ki (Aurora-1 (Aurora B)) | IC50 (Colo205 cells; [3]) [nM] | other results
 | Cc1cc(Nc2cc(N3CC(F)(C4CC4)C3)nc(Sc3ccc(NC(=O)C4CC4)cc3)n2)n[nH]1 [Compound 128] | 10 to 500 |  |  |  | IC50 (Colo205 cells; COLO 205, 72 h): 30 to 200 nM; IC50 (Colo205 cells; COLO 205, 96 h): ≤ 50 nM
 | Cc1cc(Nc2cc(N3CC(O)(C4CC4)C3)nc(Sc3ccc(NC(=O)C4CC4)cc3F)n2)[nH]n1 [Compound 110] | ≤ 10 | ≤ 50 |  |  | 
 | CCC(=O)Nc1ccc(Sc2nc(Nc3cc(C)n[nH]3)cc(N3CC(O)(C(C)CC)C3)n2)cc1 (stereo not shown) [Compound 100] | 10 to 500 | ≤ 50 |  |  | 
 | CCC(=O)Nc1ccc(Sc2nc(Nc3cc(C)n[nH]3)cc(N3CC(O)(C4CCCC4)C3)n2)cc1 [Compound 97] | 10 to 500 |  |  |  | IC50 (Colo205 cells; COLO 205, 72 h): ≤ 30 nM; IC50 (Colo205 cells; COLO 205, 96 h): > 1000 nM
 | Cc1cc(Nc2cc(N3CCC3)nc(Sc3ccc(NC(=O)c4cccc(CN(C)C)c4)cc3)n2)[nH]n1 [Compound 138] | 500 to 2000 | 50 to 1000 | 50 to 2000 nM |  | 
 | Cc1cc(Nc2cc(N3CCC3)nc(Sc3ccc(C(=O)Nc4ccc(Cl)cc4)cc3)n2)n[nH]1 [Compound 21] | ≤ 10 | > 1000 | 50 to 2000 nM |  | Ki (Aurora-2 (Aurora A)): 5 to 200 nM
 | Cc1cc(Nc2cc(N3CC(F)(C4CC4)C3)nc(Sc3ccc(NC(=O)C4CC4(F)F)cc3)n2)[nH]n1 (stereo not shown) [Compound 194] | 10 to 500 |  |  | ≤ 30 | 
 | Cc1cc(Nc2cc(N3CC(F)(C4CC4)C3)nc(Sc3ccc(NC(=O)CC4CC4)cc3)n2)[nH]n1 [Compound 171] | 500 to 2000 |  |  | 30 to 200 | 
1 to 5 | Cc1cc(Nc2cc(N3CC4(CCCO4)C3)nc(Sc3ccc(NC(=O)C4CC4)cc3)n2)[nH]n1 [Compound 123] |  |  | ≤ 10 nM | 30 to 200 | 
 | Cc1cc(Nc2cc(N3CC(F)(C4CC4)C3)nc(Sc3ccc(NC(=O)CC(F)(F)F)nc3)n2)[nH]n1 [Compound 211] | ≤ 10 |  |  |  | IC50 (Colo205 cells; COLO 205, 72 h): ≤ 30 nM
 | Cc1cc(Nc2cc(N3CC(O)(C4CC4)C3)nc(Sc3ccc(NC(=O)C4CC4(F)F)cc3)n2)[nH]n1 (stereo not shown) [Compound 113] | ≤ 10 |  |  | ≤ 30 | 
≤ 1 | Cc1cc(Nc2cc(N3CC(F)(C4CC4)C3)nc(Sc3ccc4c(c3)N(C)C(C(F)(F)F)N4)n2)[nH]n1 (stereo not shown) [Compound 156] |  | 50 to 1000 | 10 to 50 nM and < 25 nM | 30 to 200 | 
5 to 200 | CC(=O)Nc1ccc(Nc2nc(Nc3cc(C)n[nH]3)cc(N3CC(F)(C4CC4)C3)n2)cc1 [Compound 201] |  | 50 to 1000 | 50 to 2000 nM |  | 
 | Cc1cc(Nc2cc(N3CC(O)(C4CC4)C3)nc(Sc3ccc(NC(=O)C4CCCC4)cc3)n2)[nH]n1 [Compound 104] | 10 to 500 | ≤ 50 |  |  | 
 | CCC(=O)Nc1ccc(Sc2nc(Nc3cc(C)n[nH]3)cc(N3CC(O)(C(C)C)C3)n2)cc1 [Compound 99] | ≤ 10 | ≤ 50 |  |  | 
 | Cc1cc(Nc2cc(N3CC(F)(C4CC4)C3)nc(Sc3ccc(NC(=O)CC(F)(F)F)cc3)n2)[nH]n1 [Compound 135] | ≤ 10 |  |  |  | IC50 (Colo205 cells; COLO 205, 72 h): ≤ 30 nM; IC50 (Colo205 cells; COLO 205, 96 h): ≤ 50 nM
 | Cc1cc(Nc2cc(N3CC(O)(C4CC4)C3)nc(Sc3ccc(NC(=O)C4CC4)cc3)n2)n[nH]1 [Compound 103] | 10 to 500 |  |  |  | IC50 (Colo205 cells; COLO 205, 72 h): 30 to 200 nM; IC50 (Colo205 cells; COLO 205, 96 h): ≤ 50 nM
≤ 1 | CC(=O)OC1(C2CC2)CN(c2cc(Nc3cc(C)n[nH]3)nc(Sc3ccc(NC(=O)C4CC4)cc3)n2)C1 [Compound 107] |  | ≤ 50 | 10 to 50 nM |  | 
≤ 1 | CCC1(F)CN(c2cc(Nc3cc(C)n[nH]3)nc(Sc3ccc(NC(=O)CC(F)(F)F)cc3)n2)C1 [Compound 196] |  |  | ≤ 10 nM | ≤ 30 | 
 | CCC(=O)Nc1ccc(Sc2nc(Nc3cc(C4CC4)[nH]n3)cc(N3CC(O)(C4CC4)C3)n2)cc1 [Compound 102] | ≤ 10 |  |  |  | IC50 (Colo205 cells; COLO 205, 96 h): ≤ 50 nM
 | O=C(Nc1ccc(Sc2nc(Nc3cc(C4CC4)[nH]n3)cc(N3CC(O)(C4CC4)C3)n2)cc1)C1CC1 [Compound 105] | ≤ 10 | ≤ 50 |  |  | 
 | CCC(=O)Nc1ccc(Sc2nc(Nc3cc(C)n[nH]3)cc(N3CC(O)(C4CC4)C3)n2)cc1 [Compound 85] | 10 to 500 | ≤ 50 |  | ≤ 30 | 
≤ 1 | Cc1cc(Nc2cc(N3CCC3)nc(Sc3ccc(NC(=O)Cc4ccc(Cl)cc4)cc3)n2)n[nH]1 [Compound 36] |  | 50 to 1000 | 10 to 50 nM and < 25 nM |  | 
 | Cc1cc(Nc2cc(N3CC(F)(C4CC4)C3)nc(Sc3ccc(NC(=O)C4CC4)cc3F)n2)n[nH]1 [Compound 170] | 10 to 500 |  |  | ≤ 30 | 

SMILES | Ki (Aurora-2 (Aurora A); [2]) [nM] | Ki (JAK3) [nM] | IC50 (Colo205 cells; [1]) [nM] | Ki (Aurora-1 (Aurora B)) | IC50 (Colo205 cells; [3]) [nM] | other results
Cc1cc(Nc2cc(N3CC(F)(C4CC4)C3)nc(Sc3ccc4c(c3)CN(CC(F)(F)F)C4=O)n2)[nH]n1 [Compound 179] | ≤ 1 |  |  | ≤ 10 nM | 30 to 200 | Ki (JAK3; read-out: JAK3 Ki value): 10 to 500 nM
Cc1cc(Nc2cc(N3CCC3)nc(Sc3ccc(NC(=O)c4ccc(Oc5ccccc5)cc4Cl)cc3)n2)[nH]n1 [Compound 87] | ≤ 1 | 500 to 2000 |  | ≤ 10 nM | 30 to 200 | 
Cc1cc(Nc2nc(Sc3ccc(NC(=O)c4ccccc4Cl)cc3)nc(N3CCC3)c2F)[nH]n1 [Compound 192] | 1 to 5 | 500 to 2000 |  | 10 to 50 nM | > 200 | 
Cc1cc(Nc2cc(N3CC(O)(C4CC4)C3)nc(Oc3ccc4nc(C)sc4c3)n2)[nH]n1 [Compound 180] | ≤ 1 | ≤ 10 |  | 10 to 50 nM | 30 to 200 | 
CCOP(=O)(O)OC1(C)CN(c2cc(Nc3cc(C)n[nH]3)nc(Sc3ccc(NC(=O)c4ccccc4C(F)(F)F)cc3)n2)C1 [Compound 129] | ≤ 1 |  |  | ≤ 10 nM | > 200 | 
